Data on 28 molecules can be found in ChEMBL document CHEMBL4811239, “Insertion of metal carbenes into the anilinic N-H bond of unprotected aminobenzenesulfonamides delivers low nanomolar inhibitors of human carbonic anhydrase IX and XII isoforms” (Eur J Med Chem, 2021).

Active and inactive are the calls of the source. No cut-off for these calls is given here.

Test [1] concerns MDA-MB-231. The test is described as follows: Antiproliferative activity against human MDA-MB-231 cells assessed as reduction in cell viability at 100 uM after 72 hrs under hypoxic condition by MTT assay. It counts as functional.
Test [2] relates to MDA-MB-231. The test is described as follows: Antiproliferative activity against human MDA-MB-231 cells assessed as reduction in cell viability at 100 uM after 72 hrs under normoxic condition by MTT assay. Type of test: functional. For orientation: Formazan colour is commonly taken as a measure of viable cells.
For a further test, the target named is Carbonic anhydrase 1 (Homo sapiens, UniProt P00915). The experiment in a line: Inhibition of recombinant human CA1 pre-incubated for 15 mins prior to testing by phenol red-based stopped-flow CO2 hydration assay.
The test system of test [3] is MCF7. The experiment in a line: Antiproliferative activity against human MCF-7 cells assessed as cell survival at 100 uM after 72 hrs under normoxic condition by MTT assay. Type of test: functional.
Test [4] concerns MCF7. The test is described as follows: Antiproliferative activity against human MCF7 cells assessed as cell survival at 100 uM after 72 hrs under hypoxic condition by MTT assay. It counts as functional.
Another test has as its target Carbonic anhydrase 12 (Homo sapiens, UniProt O43570). The experiment in a line: Inhibition of recombinant human CA12 pre-incubated for 15 mins prior to testing by phenol red-based stopped-flow CO2 hydration assay.
A further test concerns the target Carbonic anhydrase 9 (Homo sapiens, UniProt Q16790). The test is described as follows: Inhibition of recombinant human CA9 pre-incubated for 15 mins prior to testing by phenol red-based stopped-flow CO2 hydration assay.

Sequence of Carbonic anhydrase 12 (O43570 whole entry): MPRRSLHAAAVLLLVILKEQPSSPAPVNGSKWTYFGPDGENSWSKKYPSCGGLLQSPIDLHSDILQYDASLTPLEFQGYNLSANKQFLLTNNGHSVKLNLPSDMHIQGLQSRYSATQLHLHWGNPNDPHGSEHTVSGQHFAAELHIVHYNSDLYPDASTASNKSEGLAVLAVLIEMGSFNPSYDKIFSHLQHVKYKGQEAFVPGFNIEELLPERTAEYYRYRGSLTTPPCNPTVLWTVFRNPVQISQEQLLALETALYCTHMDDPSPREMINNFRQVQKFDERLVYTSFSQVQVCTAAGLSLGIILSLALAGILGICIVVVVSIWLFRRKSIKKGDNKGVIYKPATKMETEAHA
Sequence of Carbonic anhydrase 1 (P00915 whole entry): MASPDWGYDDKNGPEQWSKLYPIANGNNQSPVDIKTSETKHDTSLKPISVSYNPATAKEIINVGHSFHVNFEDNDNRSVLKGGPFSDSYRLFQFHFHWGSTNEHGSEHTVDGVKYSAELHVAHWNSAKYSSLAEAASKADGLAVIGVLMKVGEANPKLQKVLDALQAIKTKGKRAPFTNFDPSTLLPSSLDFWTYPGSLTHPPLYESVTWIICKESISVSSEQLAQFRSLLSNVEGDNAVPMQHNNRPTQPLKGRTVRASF

The Ki is the equilibrium dissociation constant of an inhibitor or competing ligand from its target. Take `CC(C)C(C(=O)Nc1cccc(S(N)(=O)=O)c1)C(=O)c1ccccc1` (configuration not stated): the result in the test with MDA-MB-231 [1], with MDA-MB-231 [2], in the test on MCF7 [3] and in the test with MCF7 [4] was inactive. The Ki worked out at 1360 nM on Carbonic anhydrase 1, 59.6 nM on Carbonic anhydrase 12 and 71.1 nM at Carbonic anhydrase 9.

For the molecule `NS(=O)(=O)c1ccc(NC2CCN(c3nccs3)C2=O)cc1` (configuration not stated), the outcome with MDA-MB-231 [1], with MDA-MB-231 [2], with MCF7 [3] and with MCF7 [4] was inactive. Also, the Ki at Carbonic anhydrase 1 stood at 138 nM; on Carbonic anhydrase 12 it was 18.8 nM; at Carbonic anhydrase 9, 36.8 nM.

With `COc1ccc(C(=O)CNc2cccc(S(N)(=O)=O)c2)cc1`, the result in the test with MDA-MB-231 [1], in the test with MDA-MB-231 [2], in the test with MCF7 [3] and in the test with MCF7 [4] was inactive. Besides, the results for the Ki at Carbonic anhydrase 1, at Carbonic anhydrase 12 and at Carbonic anhydrase 9 were 920 nM, 189 nM and 54.3 nM, respectively.

For `COC(=O)C(Nc1cccc(S(N)(=O)=O)c1)C(=O)c1ccc(OC)cc1` (configuration not stated), the result in the test on MDA-MB-231 [1], with MDA-MB-231 [2], with MCF7 [3] and with MCF7 [4] was inactive. Besides, the figures for the Ki at Carbonic anhydrase 1 and at Carbonic anhydrase 9 were 2550 nM and 91.9 nM, respectively.

Consider `CCOC(=O)C(C(=O)Nc1ccc(S(N)(=O)=O)cc1)C(C)C` (configuration not stated), for which the result in the test on MDA-MB-231 [1], with MDA-MB-231 [2], with MCF7 [3] and in the test on MCF7 [4] was inactive. The Ki at Carbonic anhydrase 1 is 56.9 nM; at Carbonic anhydrase 9 it was 32 nM.

Regarding `NS(=O)(=O)c1cccc(NCC(=O)N2CCN(Cc3ccc(Cl)cc3)CC2)c1`, the result in the test with MDA-MB-231 [1], in the test with MDA-MB-231 [2], in the test with MCF7 [3] and in the test on MCF7 [4] was inactive. In addition, the Ki on Carbonic anhydrase 1 stood at 3950 nM; at Carbonic anhydrase 12 it was 36.1 nM; at Carbonic anhydrase 9, 116 nM.

Turning to `NS(=O)(=O)c1ccc(NC2CCCCCC2=O)cc1` (configuration not stated), the Activity in the test on MDA-MB-231 [1] and with MDA-MB-231 [2] was 30% each time. In addition, the Ki is 202 nM at Carbonic anhydrase 1, 49.2 nM on Carbonic anhydrase 12 and 6.4 nM on Carbonic anhydrase 9. Besides, the outcome in the test on MCF7 [3] and in the test with MCF7 [4] was inactive.

Consider `CCOC(=O)C(C(=O)Nc1cccc(S(N)(=O)=O)c1)C(C)C` (configuration not stated), for which the outcome with MDA-MB-231 [1], in the test on MDA-MB-231 [2], in the test on MCF7 [3] and in the test with MCF7 [4] was inactive. Further, the Ki came to 346 nM on Carbonic anhydrase 1, 113 nM at Carbonic anhydrase 12 and 70.1 nM at Carbonic anhydrase 9.

For `CC(C)(C)C(=O)CNc1cccc(S(N)(=O)=O)c1`, the result in the test on MDA-MB-231 [1], with MDA-MB-231 [2], in the test on MCF7 [3] and in the test on MCF7 [4] was inactive. Further, the values for the Ki at Carbonic anhydrase 1, on Carbonic anhydrase 12 and on Carbonic anhydrase 9 were 343 nM, 24.1 nM and 41.7 nM, respectively.

With `Cc1ccc(C(=O)CNc2cccc(S(N)(=O)=O)c2)cc1`, the outcome in the test with MDA-MB-231 [1], with MDA-MB-231 [2], in the test on MCF7 [3] and with MCF7 [4] was inactive. The Ki at Carbonic anhydrase 1 turned out to be 294 nM; on Carbonic anhydrase 12, 208 nM; at Carbonic anhydrase 9, 63.9 nM.

Take `CCOC(=O)C(Nc1ccc(S(N)(=O)=O)cc1)c1ccc(OC)c(OC)c1` (configuration not stated): the outcome with MDA-MB-231 [1], in the test on MDA-MB-231 [2], in the test on MCF7 [3] and in the test on MCF7 [4] was inactive. In addition, the Ki at Carbonic anhydrase 1 amounted to 5880 nM; on Carbonic anhydrase 12, 35.7 nM; at Carbonic anhydrase 9, 6.5 nM.

Turning to `COCC(=O)C(Nc1ccc(S(N)(=O)=O)cc1)C(=O)OC` (configuration not stated), the outcome in the test on MDA-MB-231 [1], in the test on MDA-MB-231 [2], with MCF7 [3] and with MCF7 [4] was inactive. Further, the results for the Ki on Carbonic anhydrase 1, at Carbonic anhydrase 12 and at Carbonic anhydrase 9 were 69.8 nM, 24.7 nM and 64.1 nM, respectively.

In the case of `CCOC(=O)C(Nc1cccc(S(N)(=O)=O)c1)C(=O)c1ccccc1` (configuration not stated), the Activity in the test on MDA-MB-231 [1] and with MDA-MB-231 [2] was 30% in each case. For the same molecule, the figures for the Ki at Carbonic anhydrase 1, at Carbonic anhydrase 12 and at Carbonic anhydrase 9 were 1570 nM, 82.9 nM and 58.6 nM, respectively. The outcome in the test on MCF7 [3] and in the test with MCF7 [4] was inactive.

In the case of `Cc1ccc(C(=O)CNc2ccc(S(N)(=O)=O)cc2)cc1`, the outcome with MDA-MB-231 [1], in the test on MDA-MB-231 [2], in the test with MCF7 [3] and in the test on MCF7 [4] was inactive. In addition, the Ki was 53.3 nM at Carbonic anhydrase 1, 67.4 nM at Carbonic anhydrase 12 and 15.2 nM at Carbonic anhydrase 9.

Consider `COc1ccccc1CC1=C(Nc2ccc(S(N)(=O)=O)cc2)C(=O)N(c2ccccc2)C1=O`, for which the Ki at Carbonic anhydrase 1 is over 10000 nM; on Carbonic anhydrase 12 it was 87.9 nM; at Carbonic anhydrase 9, 68 nM. The outcome with MCF7 [3] and with MCF7 [4] was Active.

On to `CC(C(=O)Nc1ccc(S(N)(=O)=O)cc1)C(=O)c1ccc(Cl)cc1` (configuration not stated), for which the Activity in the test on MDA-MB-231 [1] and in the test on MDA-MB-231 [2] was 30% throughout. The Ki on Carbonic anhydrase 1 was 215 nM; on Carbonic anhydrase 12 it was 22.6 nM; at Carbonic anhydrase 9, 34.3 nM. The result in the test on MCF7 [3] and with MCF7 [4] was Active.

With `CCN(CC)C(=O)CNc1ccc(S(N)(=O)=O)cc1`, the result in the test with MDA-MB-231 [1], in the test on MDA-MB-231 [2], with MCF7 [3] and in the test with MCF7 [4] was inactive. For the same molecule, the figures for the Ki at Carbonic anhydrase 1, at Carbonic anhydrase 12 and at Carbonic anhydrase 9 were 243 nM, 33.2 nM and 89.1 nM, respectively.

For `CCOC(=O)C(Nc1ccc(S(N)(=O)=O)cc1)C(=O)c1ccccc1` (configuration not stated), the outcome with MDA-MB-231 [1], in the test with MDA-MB-231 [2], with MCF7 [3] and with MCF7 [4] was inactive. Moreover, the Ki at Carbonic anhydrase 1 was 245 nM; on Carbonic anhydrase 12, 21.8 nM; at Carbonic anhydrase 9, 18 nM.

In the case of `CCOC(=O)C(C(=O)Nc1ccc(S(N)(=O)=O)cc1)c1ccccc1` (configuration not stated), the result in the test with MDA-MB-231 [1], with MDA-MB-231 [2], in the test on MCF7 [3] and in the test with MCF7 [4] was inactive. Besides, the Ki was 311 nM on Carbonic anhydrase 1, 41.6 nM at Carbonic anhydrase 12 and 61.5 nM at Carbonic anhydrase 9.

Consider `COC(=O)C(Nc1ccc(S(N)(=O)=O)cc1)C(=O)c1ccccc1OC` (configuration not stated), for which the Ki on Carbonic anhydrase 1 is 829 nM; at Carbonic anhydrase 12, 26.5 nM; on Carbonic anhydrase 9, 25.6 nM.

For `COC(=O)C(Nc1ccc(S(N)(=O)=O)cc1)C(=O)OC`, the result with MDA-MB-231 [1], in the test with MDA-MB-231 [2], in the test on MCF7 [3] and with MCF7 [4] was inactive. The Ki on Carbonic anhydrase 1 came to 166 nM; at Carbonic anhydrase 9, 58.1 nM.

`COc1ccc(C(=O)CNc2ccc(S(N)(=O)=O)cc2)cc1`: the outcome in the test on MDA-MB-231 [1] and in the test on MDA-MB-231 [2] was inactive. In addition, the Ki at Carbonic anhydrase 1 is 124 nM; at Carbonic anhydrase 12, 81.7 nM; on Carbonic anhydrase 9, 10.1 nM. The result in the test with MCF7 [3] and with MCF7 [4] was Active.

For the molecule `CCOC(=O)C(Nc1ccc(S(N)(=O)=O)cc1)C(=O)OCC`, the outcome in the test with MDA-MB-231 [1], in the test with MDA-MB-231 [2], in the test on MCF7 [3] and with MCF7 [4] was inactive. Besides, the inhibitory constant (Ki) on Carbonic anhydrase 1 was found to be 135 nM; at Carbonic anhydrase 12, 57.2 nM; at Carbonic anhydrase 9 it was 52.4 nM.

`COCCOC(=O)C(Nc1ccc(S(N)(=O)=O)cc1)C(=O)OCCOC`: the outcome with MDA-MB-231 [1], with MDA-MB-231 [2], with MCF7 [3] and in the test with MCF7 [4] was inactive. For the same molecule, the Ki turned out to be 85.8 nM at Carbonic anhydrase 1, 45 nM at Carbonic anhydrase 12 and 36.8 nM on Carbonic anhydrase 9.

Regarding `CCOC(=O)C(Nc1ccc(S(N)(=O)=O)cc1)c1ccc(Cl)cc1` (configuration not stated), the Activity with MDA-MB-231 [1] and in the test with MDA-MB-231 [2] was 30% in each case. In addition, the Ki on Carbonic anhydrase 1 turned out to be 135 nM; on Carbonic anhydrase 12 it was 63 nM; at Carbonic anhydrase 9, 54.3 nM. The outcome with MCF7 [3] and in the test with MCF7 [4] was inactive.

In the case of `CCOC(=O)C(Nc1ccc(S(N)(=O)=O)cc1)C(=O)c1ccc(OC)cc1` (configuration not stated), the outcome in the test with MDA-MB-231 [1], in the test on MDA-MB-231 [2], in the test on MCF7 [3] and in the test on MCF7 [4] was inactive. Also, the Ki at Carbonic anhydrase 1 came out at 314 nM; on Carbonic anhydrase 12, 16.5 nM; on Carbonic anhydrase 9, 12.5 nM.

Turning to `CCN(CC)C(=O)CNc1cccc(S(N)(=O)=O)c1`, the result in the test with MDA-MB-231 [1], in the test on MDA-MB-231 [2], in the test on MCF7 [3] and in the test on MCF7 [4] was inactive. Moreover, the Ki was 70.6 nM at Carbonic anhydrase 1, 83.7 nM at Carbonic anhydrase 12 and 45.9 nM at Carbonic anhydrase 9.

For `NS(=O)(=O)c1ccc(NC2CCN(c3cccc(C(F)(F)F)c3)C2=O)cc1` (configuration not stated), the result in the test on MDA-MB-231 [1], with MDA-MB-231 [2], in the test on MCF7 [3] and in the test on MCF7 [4] was inactive. Also, the Ki was found to be 463 nM on Carbonic anhydrase 1, 13.8 nM at Carbonic anhydrase 12 and 19.7 nM at Carbonic anhydrase 9.
